Legend:
IDO1 [1] = biological target: T1, IDO1 (Homo sapiens, UniProt P14902); assay: IDO1 cellular activity using Hela cells (IFN-gamma induced IDO expression, kynurenine absorbance at 480 nm); assay type: cell-based; conditions: IDO induced with interferon gamma 50 ng/ml, 24 h compound incubation, read-out: Inhibitory Activity (IC50)
Description: Hela cells were seeded at a density of 20000 cells/well in 100 μl of a culture medium (EMEM supplemented with 10% FBS, penicillin 100 U/ml, and streptomycin 100 μg/ml) in a tissue culture-treated 96 well plate. The cells were cultured in a 5% carbon dioxide incubator for 24 hours, treated with recombinant human interferon gamma at the concentration of 50 ng/ml, and then cultured for 48 hours in a 5% carbon dioxide incubator to induce IDO expression.
The activities were measured using IDO1 cellular activity-measuring substrate (IDO1 cellular activity quickDetect supplements catalog: #62000-2, BPS Bioscience). Specifically, an assay medium was prepared by diluting IDO1 assay medium substrate 1 and IDO1 assay medium supplement 2 in a culture medium at a ratio of 1:100, respectively. The test compounds were diluted to the predetermined concentrations in the fresh assay medium. After removing the culture medium using a multi-pipet, 200 μl of each assay medium containing the test material was added into the respective well, followed by incubating in a 5% carbon dioxide incubator for 24 hours. The next day, 140 μl of culture medium from each well was transferred to a new 96-well plate. 10 μl of 6.1N trichloroacetic acid was added into each well, which was then cultured in a 50° C. incubator for 30 minutes. The plate was centrifuged at 2500 rpm for 10 minutes to settle any sediment. A detection reagent solution was prepared by diluting the detection reagent (component D kit, catalog: #62000-2, BPS Bioscience) 50-fold in acetic acid. 100 μl of the supernatant taken from the centrifuged plate was transferred to a new transparent 96-well plate and then 100 μl of the detection reagent solution was added thereto. After reacting at room temperature for 10 minutes, absorbance was measured at 480 nm wavelength. For analysis of the results, the absorbance (At) of the well containing Hela cells in which IDO protein expression was induced without treatment of an inhibitor was 100%; and the absorbance (Ab) of the well containing Hela cells in which IDO protein expression was not induced was 0. The % absorbance was calculated according to the following equation: % Absorbance=(A−Ab)/(At−Ab), A=absorbance of the well treated with the test compound.
The results obtained by calculating the 50% inhibitory concentration (C50) of each compound, from the absorbance values obtained as described above, are shown in Table 1 below.

[2] = Pharmacokinetics through oral administration in normal rats; assay type: in vivo; conditions: 10 mg/5 mL/kg
Description: The pharmacokinetics of the compounds of Examples 2, 5 and 25 and BMS-986205 (control) were measured in rats, respectively. The compounds of Examples 2, 5 and 25 and BMS-986205 (control) were each suspended in 0.5% methyl cellulose containing 0.2% Tween 80 and then orally administered to rats at a dose of 10 mg/5 mL/kg. Blood samples were collected from the rat in predetermined times. The concentration of the compound in each sample was analyzed to obtain the blood concentration profiles (FIG. 1).

IDO1 [3] = biological target: T1, IDO1; assay: IDO1 cellular activity using HEK293 cells transfected with IDO1 expression vector; assay type: cell-based; set-up: host or cells: HEK293 cells, transient transfection with Lipofectamine 2000; conditions: 24 h compound incubation, read-out: Inhibitory Activity (IC50)
How it was run: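 HEK293 cells transiently transfected with IDO1 expression vector, expressed 24 h, then given compound in substrate-containing assay medium for 24 h. Medium TCA-treated 30 min at 50° C; product detected by absorbance at 480 nm, scaled between untreated IDO1-expressing cells (100%) and non-expressing cells (0).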

T1 sequence (P14902 whole entry): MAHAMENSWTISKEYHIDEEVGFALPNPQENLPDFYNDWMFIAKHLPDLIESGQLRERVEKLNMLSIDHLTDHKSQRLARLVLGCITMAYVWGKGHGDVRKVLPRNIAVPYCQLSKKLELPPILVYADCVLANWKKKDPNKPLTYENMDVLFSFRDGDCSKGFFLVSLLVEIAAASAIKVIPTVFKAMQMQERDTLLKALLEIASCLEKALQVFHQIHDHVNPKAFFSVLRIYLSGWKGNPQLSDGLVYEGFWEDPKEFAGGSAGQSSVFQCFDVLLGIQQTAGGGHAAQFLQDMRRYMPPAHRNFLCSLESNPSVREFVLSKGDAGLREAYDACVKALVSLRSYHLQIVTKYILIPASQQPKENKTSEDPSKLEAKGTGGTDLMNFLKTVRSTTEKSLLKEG

IC50 (IDO1 [1]): 4.4 nM
Area under the curve [2]: 16018 ng·h/mL
Time to maximum plasma concentration [2]: 2 h
Maximum plasma concentration ([2]; suspension in 0.5% methyl cellulose containing 0.2% Tween 80): 2170.3 ng/mL
IC50 (IDO1 [3]): 5.2 nM
Structure (SMILES): C[C@H](C[C@H]1CC[C@@H](c2ccnc3ccc(F)cc32)CC1)Nc1nc2ccc(Cl)cc2o1 [Example 25, 6-chloro-N-((R)-1-((cis)-4-(6-fluoroquinolin-4-yl)cyclohexyl)propan-2-yl)benzo[d]oxazol-2-amine]

Reference: patent US20240174636A1, “NOVEL INDOLEAMINE 2,3-DIOXYGENASE INHIBITORS, PROCESSES FOR THE PREPARATION THEREOF AND PHARMACEUTICAL COMPOSITIONS COMPRISING THE SAME” (YUHAN CORPORATION, priority 2021, published 2024)
